The values below are quoted from earlier work in patent US7041676B2, “Compounds, compositions, and methods” (Cytokinetics, Inc., priority 2002, dated 2006).

This series has as its system A549 cells. The following applies: data provided by National Cancer Institute, Developmental Therapeutic Program.
What is called GI50 is the concentration giving 50% growth inhibition. For the compound `NC(=O)NO` [hydroxyurea], the 50% growth inhibitory concentration (GI50) was 500000 nM. As to `O=c1[nH]cc(F)c(=O)[nH]1` [5-fluorouracil], the GI50 is 1000 nM. As to `COc1cccc2c1C(=O)c1c(O)c3c(c(O)c1C2=O)C[C@@](O)(C(=O)CO)C[C@@H]3O[C@H]1C[C@H](N)[C@H](O)[C@H](C)O1` [doxorubicin], the concentration for 50% growth inhibition (GI50) is 63 nM.

As for `CC(=O)O[C@H]1C(=O)[C@@]2(C)[C@H]([C@H](OC(=O)c3ccccc3)[C@]3(O)C[C@H](OC(=O)[C@H](O)[C@@H](NC(=O)c4ccccc4)c4ccccc4)C(C)=C1C3(C)C)[C@]1(OC(C)=O)CO[C@@H]1C[C@@H]2O` [paclitaxel], the GI50 is 4 nM.
